These results are taken from the CheMixHub ionic liquid set.

This series can be described thus: xn = mol fraction of the nth substance listed.

Molecules are shown by their SMILES. ± gives the uncertainty stated by the source.

With `CC(C)O` + O + CCCCCCCCCCCCOS(=O)(=O)[O-].[Na+], the electrical conductivity is 0.00013 S/m (298 K, 100 kPa, frequency 0.001 MHz, x1 = 0.01509, x3 = 0) and 0.00014 S/m (298 K, 100 kPa, frequency 0.001 MHz, x1 = 0.02546, x2 = 0.9745).
As to `CCCCCCCCn1cc[n+](C)c1.[Br-]` + O + CCCCCCCCn1cc[n+](C)c1.F[B-](F)(F)F, the electrical conductivity was 0.15 ± 0.01 S/m (298.15 K, 101 kPa, x1 = 0.0002342, x3 = 5.406e-05); 0.8 ± 0.02 S/m (298.15 K, 101 kPa, x1 = 0.001691, x3 = 0.0003242); 0.99 ± 0.02 S/m (298.15 K, 101 kPa, x1 = 0.002265, x3 = 0.0004503); 1.11 ± 0.02 S/m (298.15 K, 101 kPa, x1 = 0.002803, x3 = 0.0005403); 1.24 ± 0.03 S/m (298.15 K, 101 kPa, x1 = 0.00343, x3 = 0.0006663); 1.37 ± 0.03 S/m (298.15 K, 101 kPa, x1 = 0.004413, x3 = 0.0008642). Further, the electrical conductivity (298.15 K, 101 kPa, x1 = 0.004913, x3 = 0.0009541) is 1.45 ± 0.03 S/m.
